The results in this text go back to PMC10804372, “Degradation by Design: New Cyclin K Degraders from Old CDK Inhibitors” (ACS Chemical Biology, 2024).

The assay relates to Cyclin K. The assay can be described thus: Cyclin K levels by Western blot after single-concentration treatment. Particulars: HEK293T cells, 1 μM for 2 h; for cyclin K degradation: Western blot; for Remaining Cyclin K (%): quantified from Western blots, mean ± SD, three independent experiments. The assay is classed as cell-based, human. The procedure:
HEK293T human […] kidney cells were cultured in DMEM (Gibco/Life Technologies), containing 25 mM D-glucose, 4 mM L-glutamine, and 1 mM sodium pyruvate, and supplemented with 10% (v/v) FBS and 1% nonessential amino acids (Gibco/Life Technologies). Cells were incubated at 37 °C in a humidified atmosphere with 5% CO2.
Cells were washed with PBS and lysed (20 mM HEPES pH 7.5, 10% glycerol, 0.4 M KCl, 0.4% Triton X-100, 15 mM EDTA, and 1× protease and phosphatase inhibitors). The insoluble fraction was removed by centrifugation. Protein quantification was performed using a Bradford assay and compared to a BSA calibration curve. Equal amounts of lysates were run on SDS–PAGE 4–12% Bis–Tris Protein Gels (NuPAGE, Thermo Fisher Scientific) and then transferred onto Immobilon-P PVDF Membrane (Millipore, IPVH00010) using a Mini Trans-Blot Cell (Bio-Rad, 1703930). The membranes were blocked with 5% bovine albumin serum (BSA) in Tris-buffered saline with Tween 20 (TBS-T) and incubated with primary antibodies overnight at 4 °C. The membranes were washed three times with TBS-T and incubated with HRP-conjugated secondary antibody (BioRad) for 2 h. Membranes were washed again three times with TBS-T before being developed using Pierce ECL Western Blotting Substrate (Thermo, 32106) and visualized using LI-COR. Antibodies were purchased from Cell Signaling Technology: anti-GAPDH (D4C6R) and anti-DDB1 (D4C8) or Bethyl Laboratories: anti-Cyclin K (A301-939A). The following HRP-linked secondary antibodies were used by dilution in 5% BSA/TBS-T: antirabbit IgG (BioRad, 5213–2504) and antimouse IgG (BioRad, 103005).
Unedited blots containing the marker lane are available on request. Western blots were quantified using ImageJ. Cyclin K levels were normalized using GAPDH as a loading control. DC50 values were calculated from concentration–response curves using nonlinear regression fit to a 4-parameter curve by GraphPad Prism.

`CC[C@H](CO)Nc1nc(NCc2ccc(-c3ccccc3)cc2)c2ncn(C(C)C)c2n1` [compound 3]: the “cyclin K degradation” value is “comparable to that of CR8” and the “Remaining Cyclin K (%)” value was determined as 8 ± 7%.

For the molecule `CC[C@H](CO)Nc1nc(NCc2ccc(-c3cccnc3)cc2)c2ncn(C(C)C)c2n1` [compound 4], the “cyclin K degradation” value was “comparable to that of CR8” and the “Remaining Cyclin K (%)” value stood at 6 ± 4%.

With `CC[C@H](CO)Nc1nc(NCc2ccc(-c3ccncc3)cc2)c2ncn(C(C)C)c2n1` [compound 5], the “cyclin K degradation” value is listed as “comparable to that of CR8” and the “Remaining Cyclin K (%)” value is listed as 9 ± 6%.

For the molecule `CC[C@H](CO)Nc1nc(NCc2ccc(-c3ccc(F)cn3)cc2)c2ncn(C(C)C)c2n1` [compound 6], the “cyclin K degradation” value is reported as “reduction in degradation activity” and the “Remaining Cyclin K (%)” value came to 42 ± 8%. On the same counts, the results for `CC[C@H](CO)Nc1nc(NCc2ccc(-c3ccc(C)cn3)cc2)c2ncn(C(C)C)c2n1` [compound 7] are “abrogated degradation further” and 93 ± 6%. Consider `CC[C@H](CO)Nc1nc(NCc2ccc(-c3ccc(CC(C)C)cc3)cc2)c2ncn(C(C)C)c2n1` [compound 9], for which the “Remaining Cyclin K (%)” value was 79 ± 22%. Still for that read-out and setting: in the case of `CC[C@H](CO)Nc1nc(NCc2ccc(-c3ccc(C(=O)NC45CC6CC(CC(C6)C4)C5)cn3)cc2)c2ncn(C(C)C)c2n1` [compound 10] it was 94 ± 8%. On to `CC[C@H](CO)Nc1nc(NCc2ccc(-c3cccc(F)n3)cc2)c2ncn(C(C)C)c2n1` [compound 11], for which the “cyclin K degradation” value is “complete degradation” and the “Remaining Cyclin K (%)” value came to 2 ± 3%. For `CC[C@H](CO)Nc1nc(NCc2ccc(-c3cc(F)ccn3)cc2)c2ncn(C(C)C)c2n1` [compound 13], the “Remaining Cyclin K (%)” value is 3 ± 2%. Consider `CC[C@H](CO)Nc1nc(NCc2ccc(-c3cc(C)ccn3)cc2)c2ncn(C(C)C)c2n1` [compound 14], for which the “Remaining Cyclin K (%)” value was found to be 1 ± 0%. Regarding `CCc1ccnc(-c2ccc(CNc3nc(N[C@H](CC)CO)nc4c3ncn4C(C)C)cc2)c1` [compound 16], the “cyclin K degradation” value is listed as “able to successfully induce degradation” and the “Remaining Cyclin K (%)” value is on record as 6 ± 4%. On the same counts, the results for `CC[C@H](CO)Nc1nc(NCc2ccc(-c3cc(C#N)ccn3)cc2)c2ncn(C(C)C)c2n1` [compound 17] are “able to successfully induce degradation” and 2 ± 2%. For `CC[C@H](CO)Nc1nc(NCc2ccc(-c3ncccc3F)cc2)c2ncn(C(C)C)c2n1` [compound 18], the “cyclin K degradation” value is given as “able to induce degradation” and the “Remaining Cyclin K (%)” value was 17 ± 13%. Take `CC[C@H](CO)Nc1nc(NCc2ccc(-c3ncccc3C)cc2)c2ncn(C(C)C)c2n1` [compound 19]: the “cyclin K degradation” value is recorded as “reduced degradation ability compared to CR8” and the “Remaining Cyclin K (%)” value is 37 ± 16%. The matching figures for `CC[C@H](CO)Nc1nc(NCc2ccc(C3=CCCCC3)cc2)c2ncn(C(C)C)c2n1` [compound 22]: “partial degradation” and 22 ± 5%. The matching figures for `CC[C@H](CO)Nc1nc(NCc2ccc(N3CCNCC3)cc2)c2ncn(C(C)C)c2n1` [compound 24]: “significantly reduced degradation ability” and 86 ± 20%. Take `CC[C@H](CO)Nc1nc(NCc2ccc(C3=CCCC3)cc2)c2ncn(C(C)C)c2n1` [compound 26]: the “cyclin K degradation” value is “complete cyclin K degradation” and the “Remaining Cyclin K (%)” value is listed as 5 ± 4%.

Turning to `CC[C@H](CO)Nc1nc(NCc2ccc(C3CCCC3)cc2)c2ncn(C(C)C)c2n1` [compound 27], the “cyclin K degradation” value is “only partial degradation” and the “Remaining Cyclin K (%)” value was found to be 31 ± 16%. For the molecule `CC[C@H](CO)Nc1nc(NCc2ccc(-c3ccoc3)cc2)c2ncn(C(C)C)c2n1` [compound 28], the “cyclin K degradation” value is listed as “complete degradation” and the “Remaining Cyclin K (%)” value is recorded as 2 ± 2%.
